Values after ≈ are worked out from the molar mass of the structure shown. Active and inactive are the calls of the source. The calls are words filed in the database; no cut-off is given here.
How the values were obtained:
Escherichia coli [1] = assay: Antibacterial activity against Escherichia coli ATCC 25922 after 18 hrs by CLSI based broth microdilution method; assay type: functional; conditions: ATCC 25922, 18 h
Escherichia coli [2] = assay: Antibacterial activity against Escherichia coli ATCC 43837 after 18 hrs by CLSI based broth microdilution method; assay type: functional; conditions: ATCC 43837, 18 h
Klebsiella pneumoniae [3] = assay: Antibacterial activity against Klebsiella pneumoniae ATCC 700603 after 18 hrs by CLSI based broth microdilution method; assay type: functional; conditions: Klebsiella pneumoniae, 700603, 18 h
Pseudomonas aeruginosa [4] = assay: Antibacterial activity against Pseudomonas aeruginosa ATCC 27853 after 18 hrs by CLSI based broth microdilution method; assay type: functional; conditions: ATCC 27853, 18 h
Staphylococcus aureus [5] = assay: Antibacterial activity against Staphylococcus aureus ATCC 25923 after 18 hrs by CLSI based broth microdilution method; assay type: functional; conditions: ATCC 25923, 18 h
Staphylococcus aureus [6] = assay: Antibacterial activity against methicillin-resistant Staphylococcus aureus 936 after 18 hrs by CLSI based broth microdilution method; assay type: functional; conditions: Staphylococcus aureus, 936, 18 h
Bacillus subtilis = assay: Antibacterial activity against Bacillus subtilis ATCC 23857 after 18 hrs by CLSI based broth microdilution method; assay type: functional; conditions: ATCC 23857, 18 h
Erythrocyte = assay: Hemolytic activity in human RBC measured after 1 hr by microplate reader analysis; assay type: ADME, cell-based
[7] = Selectivity index, ratio of MHC10 for human RBC to geometric mean of peptide MIC for gram negative bacteria; assay type: toxicity; conditions: human red blood cells, read-out: Selectivity Index
Escherichia coli [8] = assay: Potentiation of polymyxin B-induced antibacterial activity against Escherichia coli ATCC 25922 assessed as FICI after 18 hrs by checker board assay; assay type: functional
Klebsiella pneumoniae [9] = assay: Potentiation of polymyxin B-induced antibacterial activity against Klebsiella pneumoniae ATCC 700603 assessed as FICI after 18 hrs by checker board assay; assay type: functional
Pseudomonas aeruginosa [10] = assay: Potentiation of polymyxin B-induced antibacterial activity against Pseudomonas aeruginosa ATCC 27853 assessed as FICI after 18 hrs by checker board assay; assay type: functional
Escherichia coli [11] = assay: Potentiation of rifampicin-induced antibacterial activity against Escherichia coli ATCC 25922 assessed as FICI after 18 hrs by checker board assay; assay type: functional
Klebsiella pneumoniae [12] = assay: Potentiation of rifampicin-induced antibacterial activity against Klebsiella pneumoniae ATCC 700603 assessed as FICI after 18 hrs by checker board assay; assay type: functional
Pseudomonas aeruginosa [13] = assay: Potentiation of rifampicin-induced antibacterial activity against Pseudomonas aeruginosa ATCC 27853 assessed as FICI after 18 hrs by checker board assay; assay type: functional
Escherichia coli [14] = assay: Antibacterial activity against Escherichia coli ATCC 25922 at 0.5 times MIC incubated for 18 hrs measured for 15 passages by CLSI based broth microdilution method; assay type: functional, organism-based
Escherichia coli [15] = assay: Antibiofilm activity against Escherichia coli ATCC 25922 after 24 hrs by crystal violet staining based assay; assay type: functional, organism-based
Staphylococcus aureus [16] = assay: Antibiofilm activity against Staphylococcus aureus ATCC 25923 after 24 hrs by crystal violet staining based assay; assay type: functional, organism-based
Escherichia coli [17] = assay: Antibiofilm activity against Escherichia coli ATCC 25922 at 2 times MIC after 24 hrs by crystal violet staining based assay; assay type: functional, organism-based
Pseudomonas aeruginosa [18] = assay: Antibiofilm activity against Pseudomonas aeruginosa ATCC 27853 at 0.25 to 2 times of MIC after 24 hrs by crystal violet staining based assay; assay type: functional, organism-based
Escherichia coli [19] = assay: Antimicrobial activity against Escherichia coli ATCC 25922 at 1 mM preincubated for 6 hrs in presence of 2000 ug/ml trypsin and measured after 18 hrs by microplate reader analysis; assay type: functional, organism-based
Escherichia coli [20] = assay: Ratio of MIC for Escherichia coli ATCC 25922 preincubated for 1 hr in presence of 10% mouse serum and measured after 18 hrs to MIC for antibacterial activity against Escherichia coli ATCC 25922 after 18 hrs; assay type: functional
Escherichia coli [21] = assay: Induction of outer membrane permeabilization in Escherichia coli ATCC 25922 measured up to 12 mins by NPN-dye based assay; assay type: organism-based
Escherichia coli [22] = assay: Induction of inner membrane permeabilization in Escherichia coli ATCC 43837 assessed as increase in ONPG release at 4 times of MIC by ONPG dye based assay; assay type: organism-based
Escherichia coli [23] = assay: Induction of inner membrane permeabilization in Escherichia coli ATCC 43837 assessed as increase in ONPG release at 1 to 2 times of MIC by ONPG dye based assay; assay type: organism-based
Escherichia coli [24] = assay: Disruption of membrane integrity in Escherichia coli ATCC 25922 assessed as membrane damage by measuring PI fluorescence at 4 times of MIC incubated for 1 hr by PI dye based flow cytometric analysis (reference value: 1.35%); assay type: functional
Escherichia coli [25] = assay: Disruption of membrane integrity in Escherichia coli ATCC 25922 assessed as membrane damage by measuring PI fluorescence at 2 times of MIC incubated for 1 hr by PI dye based flow cytometric analysis (reference value: 1.35%); assay type: functional
Escherichia coli [26] = assay: Induction of membrane disruption in Escherichia coli ATCC 25922 assessed as rough membrane surface at 4 times of MIC after 2 hrs by SEM analysis; assay type: functional, organism-based
Escherichia coli [27] = assay: Induction of membrane disruption in Escherichia coli ATCC 25922 assessed as corrugated membrane surface at 4 times of MIC after 2 hrs by SEM analysis; assay type: functional, organism-based
Escherichia coli [28] = assay: Induction of membrane disruption in Escherichia coli ATCC 25922 assessed as degeneration in membrane at 4 times of MIC after 2 hrs by SEM analysis; assay type: functional, organism-based
DNA = assay: Binding affinity to Escherichia coli ATCC 25922 genomic DNA after 30 mins by agarose gel electrophoresis; assay type: nucleic-acid assay
Escherichia coli [29] = assay: Ratio of antibacterial activity against Escherichia coli ATCC 25922 in presence of NaCl to antibacterial activity against Escherichia coli ATCC 25922; assay type: functional
Escherichia coli [30] = assay: Ratio of antibacterial activity against Escherichia coli ATCC 25922 in presence of MgCl2 to antibacterial activity against Escherichia coli ATCC 25922; assay type: functional
Escherichia coli [31] = assay: Ratio of antibacterial activity against Escherichia coli ATCC 25922 in presence of FeCl3 to antibacterial activity against Escherichia coli ATCC 25922; assay type: functional
Staphylococcus aureus [32] = assay: Ratio of antibacterial activity against Staphylococcus aureus ATCC 25923 in presence of NaCl to antibacterial activity against Staphylococcus aureus ATCC 25923; assay type: functional
Staphylococcus aureus [33] = assay: Ratio of antibacterial activity against Staphylococcus aureus ATCC 25923 in presence of KCl to antibacterial activity against Staphylococcus aureus ATCC 25923; assay type: functional
Staphylococcus aureus [34] = assay: Ratio of antibacterial activity against Staphylococcus aureus ATCC 25923 in presence of MgCl2 to antibacterial activity against Staphylococcus aureus ATCC 25923; assay type: functional
Staphylococcus aureus [35] = assay: Ratio of antibacterial activity against Staphylococcus aureus ATCC 25923 in presence of FeCl3 to antibacterial activity against Staphylococcus aureus ATCC 25923; assay type: functional
Escherichia coli [36] = assay: Induction of membrane disruption in Escherichia coli ATCC 25922 assessed as fracture in membrane at 4 times of MIC after 2 hrs by SEM analysis; assay type: functional, organism-based
Escherichia coli [37] = assay: Induction of ROS generation in Escherichia coli ATCC 25922; assay type: functional, organism-based

SMILES: CCCCCCCCCC(=O)NC(Cc1cn(CCCC[C@H](NC(C)=O)C(=O)NCC(=O)N[C@@H](CC(C)C)C(=O)N[C@@H](CC(C)C)C(=O)N[C@H](CCCCN)C(=O)N[C@@H](CCCNC(=N)N)C(=O)N[C@H](C(=O)N[C@H](CCCCN)C(=O)N[C@H](C(=O)N[C@@H](CC(C)C)C(=O)N[C@@H](CC(C)C)C(N)=O)[C@@H](C)O)[C@@H](C)CC)nn1)C(=O)NCC(=O)N[C@@H](CC(C)C)C(=O)N[C@@H](CC(C)C)C(=O)N[C@H](CCCCN)C(=O)N[C@@H](CCCNC(=N)N)C(=O)N[C@H](C(=O)N[C@H](CCCCN)C(=O)N[C@H](C(=O)N[C@@H](CC(C)C)C(=O)N[C@@H](CC(C)C)C(N)=O)[C@@H](C)O)[C@@H](C)CC (stereo not given in full)
- MIC (Escherichia coli [1]): 8 µM (≈ 22 µg/mL)
- MIC (Escherichia coli [2]): 8 µM (≈ 22 µg/mL)
- MIC (Klebsiella pneumoniae [3]): 16 µM (≈ 44 µg/mL)
- MIC (Pseudomonas aeruginosa [4]): 8 µM (≈ 22 µg/mL)
- MIC (Staphylococcus aureus [5]): 8 µM (≈ 22 µg/mL)
- MIC (Staphylococcus aureus [6]): 16 µM (≈ 44 µg/mL)
- MIC (Bacillus subtilis): 2 µM (≈ 5.51 µg/mL)
- MHC10 (Erythrocyte): 32 µM
- selectivity ratio [7]: 3.2
- fractional inhibitory concentration index (FICI) (Escherichia coli [8]): 0.3125
- fractional inhibitory concentration index (FICI) (Klebsiella pneumoniae [9]): 0.5625
- fractional inhibitory concentration index (FICI) (Pseudomonas aeruginosa [10]): 0.25
- fractional inhibitory concentration index (FICI) (Escherichia coli [11]): 0.3125
- fractional inhibitory concentration index (FICI) (Klebsiella pneumoniae [12]): 0.5
- fractional inhibitory concentration index (FICI) (Pseudomonas aeruginosa [13]): 0.5625
- Activity (Escherichia coli [14]): Active
- inhibition (Escherichia coli [15]): Dose-dependent effect
- inhibition (Staphylococcus aureus [16]): Dose-dependent effect
- inhibition (Escherichia coli [17]): Active
- inhibition (Pseudomonas aeruginosa [18]): Active
- Activity (Escherichia coli [19]): Active
- Ratio (Escherichia coli [20]): 1
- Activity (Escherichia coli [21]): Dose-dependent effect
- Activity (Escherichia coli [22]): Active
- Activity (Escherichia coli [23]): Active
- Activity (Escherichia coli [24]): 82.3%
- Activity (Escherichia coli [25]): 56.3%
- Activity (Escherichia coli [26]): Active
- Activity (Escherichia coli [27]): Active
- Activity (Escherichia coli [28]): Active
- Activity (DNA): Dose-dependent effect
- Ratio (Escherichia coli [29]): 2 - 4
- Ratio (Escherichia coli [30]): 2 - 4
- Ratio (Escherichia coli [31]): 2 - 4
- Ratio (Staphylococcus aureus [32]): 2 - 4
- Ratio (Staphylococcus aureus [33]): 2 - 4
- Ratio (Staphylococcus aureus [34]): 2 - 4
- Ratio (Staphylococcus aureus [35]): 2 - 4
- Activity (Escherichia coli [36]): Active
- Activity (Escherichia coli [37]): inactive
